Test [1] has as its system A549 cells. The experiment in a line: LPS-induced cytokine production by A549 cells (bead-based multiplex immunoassay). Type of test: cell-based, Human. To be noted: 4 h, 37 °C. How it is done:
Human non-small-cell lung adenocarcinoma A549 cells (ATCC CCL-185; LGC Standards, Milan, Italy) and human monocytic THP-1 cells (ATCC TIB-202; LGC Standards) were cultured in tissue culture flasks in Dulbecco’s modified essential medium (DMEM) (Euroclone, Milan, Italy) and RPMI 1640 medium (Euroclone), respectively. Both media were supplemented with 2 mM L-glutamine (Euroclone) and 10% heat-inactivated fetal bovine serum (FBS; Euroclone). Confluent monolayers were detached from the culture flask with 0.25% trypsin/1 mM EDTA solution (Euroclone), suspended in complete culture medium and seeded into flat-bottom 96-well plates at a final density of 1 × 10^4 cells/well (A549) and 2 × 10^4 cells/well (THP-1). A549 cells were cultured for 24 h at 37 °C, 5% CO2 in order to allow adhesion and formation of semi-confluent monolayers. THP-1 cells were cultured for 3 days (37 °C, 5% CO2) in the presence of 100 nM TPA (Sigma-Aldrich, St. Louis, MO, USA) to induce their differentiation into macrophage-like cells.
(§1) The anti-inflammatory potential of lin-SB056-1 and (lin-SB056-1)2-K was assessed by evaluating their ability to reduce LPS-induced production of pro-inflammatory cytokines by A549 cells and THP-1 macrophages. In order to ensure cytokine production, cell monolayers were stimulated with LPS from P. aeruginosa serotype 10 (purified by phenol extraction; Sigma-Aldrich, Milano, Italy) at a final concentration of 10 ng/mL (THP-1) and 800 ng/mL (A549). LPS concentrations used in the experiments were chosen based on preliminary assays aimed at identifying the minimum dose of the molecule able to stimulate cytokine production after 4 h of exposure. In order to assess the inhibitory activity of peptides on cytokine production, cell monolayers were incubated in complete culture medium in the presence of LPS and different concentrations of lin-SB056-1 and (lin-SB056-1)2-K (4.8 to 19.25 μM) for 4 h (37 °C, 5% CO2). Cells incubated in the presence of LPS alone were used as positive (cytokine production) control. Following incubation, cell culture supernatants were collected, filter sterilized (0.22 µm) and employed for the quantification of cytokines and the assessment of cell viability.
Different pro-inflammatory cytokines (i.e., IL-1β, IL-6, IL-8 and TNF-α) were quantified in cell culture supernatants through a bead-based multiplex immunoassay (LEGENDplex multi-analyte flow assay kit; BioLegend, San Diego, CA, USA) following manufacturer’s instructions. Briefly, 25 μL of cytokine standard or cell supernatant were incubated with 25 μL of anti-cytokine conjugated beads into V-bottom 96-well plates for 2 h. Following incubation, the plates were washed and subsequently incubated with the detection antibody (25 μL/well) for 1 h. A volume of 25 μL of streptavidin-phycoerythrin was added to each well, and the plates were incubated for another 30 min in the dark. Following consecutive washing steps, the beads were resuspended in the LEGENDplex wash buffer and the samples were analyzed by flow cytometry (BD Accuri C6 flow cytometer; BD Biosciences, Mountain View, CA, United States). Data were acquired with the BD Accuri C6 software (BD Biosciences) (300 events per analyte) and analyzed with the LEGENDplex software (BioLegend). Minimum detectable concentration (MDC+2STDEV) for the tested cytokines were as follows: IL-1β, 0.65 + 0.47 pg/mL; IL-6, 0.97 + 1.46 pg/mL; IL-8, 1.90 + 0.65 pg/mL; TNF-α, 0.88 + 0.27 pg/mL.

The nature of test [2]: LAL assay, LPS neutralization. Type of test: biochemical, Escherichia coli. The conditions noted are these: E. coli 011:B4 LPS 2 EU/mL, 37 °C. As to the method:
The ability of lin-SB056-1 and (lin-SB056-1)2-K to neutralize the activity of LPS was analyzed using a standardized LAL assay (Pierce LAL chromogenic endotoxin quantitation kit; Thermo Fisher Scientific). Peptides at different concentrations (2.4 to 19.25 μM) were pre-incubated with E. coli 011:B4 LPS (2 Endotoxin Units (EU)/mL; EU = unit of measurement for endotoxin activity) for 30 min (37 °C, shaking) in order to promote the interaction between the two molecules. LPS alone was used as positive control. Following incubation, peptide-treated and untreated samples were mixed with the LAL reagent (1:1 ratio) and incubated for 10 min at 37 °C. Subsequently, 100 μL of the chromogenic substrate were added and incubated with the samples for 6 min. The reaction was terminated by adding 100 μL of acetic acid (25% v/v), and absorbance was measured at 405 nm ([…]) using a microplate reader (Multiscan FC, Life Technologies Italia, Monza, Italy). The amount of peptide-sequestered LPS was determined as follows: LPS neutralization (%) = [100 − (ODpeptide/ODpositive control × 100)].

In test [3] the test system is A549 cells. The experiment in a line: Cytokine production by A549 cells stimulated with whole P. aeruginosa PAO1. To be noted: 4 h, 37 °C, 5% CO2. Type of test: cell-based, Human. How it is done:
The reference strain P. aeruginosa PAO1 (ATCC 15692) was used in this study. For the preparation of stock cultures, bacteria were grown in Tryptone Soy Broth (TSB; Thermo Fisher Scientific, Waltham, MA, USA) until mid-exponential phase, then aliquoted and stored at −80 °C. For the preparation of the inoculum, a volume of 50 μL of the frozen culture was inoculated in 5 mL of TSB, and subsequently incubated for 18 h at 37 °C. […]
In some experiments, the ability of (lin-SB056-1)2-K to inhibit cytokine production by A549 cells stimulated with whole P. aeruginosa (PAO1 strain) was assessed. […]
Different pro-inflammatory cytokines (i.e., IL-1β, IL-6, IL-8 and TNF-α) were quantified in cell culture supernatants through a bead-based multiplex immunoassay (LEGENDplex multi-analyte flow assay kit; BioLegend, San Diego, CA, USA) following manufacturer’s instructions. […] Following consecutive washing steps, the beads were resuspended in the LEGENDplex wash buffer and the samples were analyzed by flow cytometry (BD Accuri C6 flow cytometer; BD Biosciences, Mountain View, CA, United States). Data were acquired with the BD Accuri C6 software (BD Biosciences) (300 events per analyte) and analyzed with the LEGENDplex software (BioLegend). […]

For test [4], the system named is lung epithelial- and macrophage-cell lines stimulated with P. aeruginosa LPS. The experiment in a line: LPS-induced production of pro-inflammatory cytokines, overall result. Type of test: cell-based, Human. How it is done: as §1, with “In order to assess the inhibitory activity of peptides on cytokine production, cell monolayers were incubated in complete culture medium in the presence of LPS and different concentrations of lin-SB056-1 and (lin-SB056-1)2-K (4.8 to 19.25 μM) for 4 h (37 °C, 5% CO2). Cells incubated in the presence of LPS alone were used as positive (cytokine production) control.” left out
Different pro-inflammatory cytokines (i.e., IL-1β, IL-6, IL-8 and TNF-α) were quantified in cell culture supernatants through a bead-based multiplex immunoassay (LEGENDplex multi-analyte flow assay kit; BioLegend, San Diego, CA, USA) following manufacturer’s instructions. […] Following consecutive washing steps, the beads were resuspended in the LEGENDplex wash buffer and the samples were analyzed by flow cytometry (BD Accuri C6 flow cytometer; BD Biosciences, Mountain View, CA, United States). […]

[5] abbreviates: 9.6 μM peptide, P. aeruginosa serotype 10 LPS 800 ng/mL, 5% CO2, complete culture medium, mean of at least three independent experiments, vs peptide-untreated control.

We go through one substance from publication PMC7557804, “The Anti-Microbial Peptide (Lin-SB056-1)2-K Reduces Pro-Inflammatory Cytokine Release through Interaction with Pseudomonas aeruginosa Lipopolysaccharide” (Antibiotics, 2020).

“Also recorded” adds a separate entry of the source.

Take “[KWKIRVRLSA]2-K [(lin-SB056-1)2-K, dendrimeric derivative of lin-SB056-1]”: the “reduction of IL-6 levels” value in the test on A549 cells [1] (setting [5]) was at most 80%. Besides, the “reduction of IL-8 levels” value in the test on A549 cells [1] (setting [5]) is at most 80%. The “effect on IL-6 release” value in the test on A549 cells [1] (LPS 800 ng/mL, peptide 4.8 to 19.25 μM) is “significant reduction”. For the same substance, the “effect on IL-8 release” value is “significant reduction” in the test on A549 cells [1] (LPS 800 ng/mL, peptide 4.8 to 19.25 μM, lin-SB056-1 decrease at 19.25 μM (highest tested)); “no evident effect” with A549 cells [3] (9.6 and 19.25 μM peptide, fixed PAO1 5 × 10^6 CFU/well). In test [2] (19.25 μM peptide, pre-incubation 30 min, shaking, LAL reagent 10 min, chromogenic substrate 6 min, absorbance 405 nm (OD450), vs peptide-untreated control, mean of three independent experiments), this substance displayed an LPS neutralization of around 100%. In test [2] (2.4 to 19.25 μM peptide, 30 min), the “LPS neutralization / LAL activity” value is reported as “higher LPS-binding ability than lin-SB056-1; also recorded: reduction of LAL activity”. Also, the “reduction in IL-6 levels” value in the test on A549 cells [3] (9.6 μM peptide, PAO1 fixed with 4% paraformaldehyde, 5 × 10^6 CFU/well, statistically significant, mean of at least three independent experiments) is reported as “up to 70%”. Moreover, the “anti-inflammatory effect compared to monomeric counterpart” value in test [4] (LPS and/or P. aeruginosa stimulation) is recorded as “superior anti-inflammatory effect compared to its monomeric counterpart”. In test [4] (lung epithelial- and macrophage-cell lines, P. aeruginosa LPS), the “decrease in LPS-induced production of pro-inflammatory cytokines (IL-1β, IL-6 and IL-8)” value is “up to 80%”.
